In patent US20240293430A1, “WITHAFERIN A AND IMMUNE CHECKPOINT BLOCKER COMBINATION THERAPIES” (University of South Florida, priority 2023, published 2024):

Test system: IFN-α mRNA in LLC and H1650 cells
Test: IFN-α qRT-PCR
Type: cell-based, mouse (LLC), human (H1650)
Procedure: ROS is the main regulator of WFA-induced PD-L1 upregulation. […] All cells were treated with 0.6 μM WFA except A549, 4t1 and MDA-MB-231 cells which were treated with 4 μM, 1 μM, 2 μM WFA, respectively. […] PCR experiments were repeated twice, and one representative experiment is shown as mean±SEM of 3 technical replicates. Flow cytometry experiments were performed twice and the mean±SEM of two representative experiments is shown. Treatments were compared to the control using one-way ANOVA and Fisher LSD post hoc test. * p<0.05, ** p<0.01, *** p<0.001, **** p<0.0001.
Total cellular RNA was isolated from collected cell pellets using TRIzol reagent (Invitrogen, Waltham, MA, USA) and then quantified using the 2000 Nanodrop spectrophotometer (Thermo Fisher Scientific, Waltham, MA, USA). cDNA synthesis was performed using the Verso cDNA synthesis kit (Thermo Fisher Scientific, Waltham, MA, USA). qPCR was then performed using Forget-Me-Not EvaGreen qPCR Master Mix (Biotium, Fremont, CA, USA) in a Bio-Rad CFX384 thermocycler according to the manufacturer's instructions. The CFX Maestro software version 2.3 (Bio-Rad, Hercules, CA, USA) was used to calculate the ΔCt and ΔΔCt values and gene expression was normalized to housekeeping genes glyceraldehyde 3-phosphate dehydrogenase (GAPDH) or β-actin. […]

SMILES: CC1=C(CO)C(=O)O[C@@H]([C@@H](C)[C@H]2CC[C@H]3[C@@H]4C[C@H]5O[C@]56[C@@H](O)C=CC(=O)[C@]6(C)[C@H]4CC[C@]23C)C1 [WFA, Withaferin A]
- IFN-α mRNA: increased
